The results in this text go back to ChEMBL document CHEMBL1201862, “PubChem BioAssay data set” (2004).

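Five compound concentrations were applied to cells in 96-well plates for 48 hours; endpoints were derived by simple linear interpolation of the resulting dose-response curve. GI50 is the concentration that inhibits growth by half.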 The source made the active and inactive calls. Cut-off read from the data, not from the text of the source: active = GI50 up to about 1.1 µM and inactive = higher.

Holding throughout (test): NCI anticancer screen, dose series, 48 h
In experiment [1] the test system is COLO 205.
For experiment [2], the system named is DMS-273.
Experiment [3] deals with EKVX.
The subject of experiment [4] is HCC 2998.
Experiment [5] relates to HCT-15.
Experiment [6] concerns HT-29.
In experiment [7] the test system is KM12.
For experiment [8], the system named is MOLT-4.
Experiment [9] concerns Malme-3M.
The subject of experiment [10] is NCI-H226.
The test system of experiment [11] is NCI-H23.
The test system of experiment [12] is OVCAR-3.
The test system of experiment [13] is OVCAR-4.
Experiment [14] deals with OVCAR-8.
Experiment [15] deals with SF-295.
Experiment [16] has as its system SK-MEL-28.
The test system of experiment [17] is SNB-19.
Experiment [18] has as its system SR.
Experiment [19] relates to UACC-257.
Experiment [20] relates to HOP-92.

For the compound `CN[C@@H]1C[C@H]2O[C@@](C)([C@@H]1OC)n1c3ccccc3c3c4c(c5c6ccccc6n2c5c31)C(=O)N[C@@H]4O`, the GI50 in experiment [1] was 0.0569 µM (active); in experiment [2], 0.0352 µM (active); in experiment [3], 0.0183 µM (active); in [4], 0.149 µM (active); in experiment [5], 0.209 µM; in experiment [6], 0.125 µM (active). Moreover, the GI50 is 0.0328 µM (active) in [7]; 0.0259 µM (active) in experiment [8]; 0.0175 µM (active) in experiment [9]; 0.0194 µM (active) in [10]; 0.0338 µM (active) in experiment [11]; 0.043 µM (active) in experiment [12]. Moreover, the GI50 in experiment [13] was 0.0526 µM (active); in experiment [14] it was 0.0668 µM (active); in experiment [15], 0.0241 µM (active); in experiment [16], 0.0551 µM (active); in experiment [17] it was 0.12 µM (active); in [18], 0.0132 µM (active). The GI50 in [19] is 0.0603 µM (active).

For the compound `c1cnc2c3[nH]cc4[nH]c5ccccc5c4c-3nc2c1`, the GI50 is 54.7 µM (inactive) in [1]; 72.9 µM (inactive) in experiment [2]; > 100 µM (inactive) in experiment [3]; 52.4 µM (inactive) in experiment [4]; 67.5 µM in experiment [5]; 16.9 µM (inactive) in experiment [20]. For the same compound, the GI50 was 29.8 µM (inactive) in experiment [6]; 36.1 µM (inactive) in experiment [7]; 22.7 µM (inactive) in [8]; 28.4 µM (inactive) in [9]; 48.3 µM (inactive) in experiment [10]; > 100 µM (inactive) in experiment [11]. For the same compound, the GI50 in experiment [12] was 53 µM (inactive); in experiment [13], 44 µM (inactive); in [14] it was 45.1 µM (inactive); in experiment [15], 47.9 µM (inactive); in experiment [16], 50.5 µM (inactive); in [17], > 100 µM (inactive). Moreover, the GI50 in [19] is > 100 µM (inactive).

Regarding `CCN(CC)Cc1c(/C=C\c2cc(OC)c(OC)c(OC)c2)ccc(OC)c1O`, the GI50 in experiment [1] was 2.45 µM (inactive); in experiment [2] it was 2.2 µM (inactive); in [3], 6.1 µM (inactive); in [4], 3.73 µM (inactive); in experiment [5], 2.71 µM; in experiment [20], 8.87 µM (inactive). The GI50 is 2.76 µM (inactive) in [6]; 1.69 µM (inactive) in experiment [7]; 15.3 µM (inactive) in [8]; 3.23 µM (inactive) in experiment [9]; 3.67 µM (inactive) in experiment [10]; 2.97 µM (inactive) in [11]. Besides, the GI50 in experiment [12] was 2.08 µM (inactive); in [13], 12.3 µM (inactive); in experiment [14], 4.1 µM (inactive); in [15], 2.03 µM (inactive); in experiment [16], 15 µM (inactive); in experiment [17], 10.3 µM (inactive). Also, the GI50 in experiment [19] was 16.8 µM (inactive).

With `Fc1cccc(C2SCc3nc4ccccc4n32)c1` (configuration not stated), the GI50 in experiment [1] was 71.4 µM (inactive); in experiment [2], 26.6 µM (inactive); in experiment [3], 32.4 µM (inactive); in experiment [4], 55.7 µM (inactive); in [20] it was 12.5 µM (inactive); in [6], 68.7 µM (inactive). Further, the GI50 in [7] is 39.1 µM (inactive); in experiment [8], 33.8 µM (inactive); in experiment [9] it was 36.4 µM (inactive); in experiment [10], 41.1 µM (inactive); in experiment [11], 19.6 µM (inactive); in experiment [12], 36.2 µM (inactive). Also, the GI50 is 66.5 µM (inactive) in experiment [14]; 48.3 µM (inactive) in experiment [15]; > 10 µM (inactive) in experiment [16]; 75.5 µM (inactive) in experiment [17]; 35.6 µM (inactive) in experiment [18]; 17.6 µM (inactive) in experiment [19].

As to `CN1NC(c2ccccc2)=C(C#N)C(=O)CC1c1ccccc1Cl` (configuration not stated), the GI50 was > 100 µM (inactive) in experiment [1]; > 100 µM (inactive) in [2]; > 100 µM (inactive) in experiment [4]; 63.4 µM in experiment [5]; > 100 µM (inactive) in [20]; > 100 µM (inactive) in experiment [6]. Besides, the GI50 in [7], in experiment [8], in experiment [9], in experiment [10], in [11] and in experiment [13] was > 100 µM (inactive) in each case. Further, the GI50 in experiment [15], in experiment [16], in [17], in experiment [18] and in experiment [19] was > 100 µM (inactive) each time.

With `Cc1ccc2sc3cc(=O)cc(C)c-3nc2c1`, the GI50 in [1] was 61.9 µM (inactive); in [2] it was 43.3 µM (inactive); in experiment [3], 38.6 µM (inactive); in [4] it was 50.4 µM (inactive); in experiment [5], 40.2 µM; in experiment [20], > 100 µM (inactive). For the same compound, the GI50 in experiment [6] is > 100 µM (inactive); in experiment [7], 49.7 µM (inactive); in [8], 15.7 µM (inactive); in experiment [10], > 100 µM (inactive); in experiment [11], 45.3 µM (inactive); in [12] it was 57.3 µM (inactive). In addition, the GI50 is 14.2 µM (inactive) in experiment [13]; 37.9 µM (inactive) in [14]; 33.1 µM (inactive) in [15]; > 100 µM (inactive) in experiment [16]; 40.8 µM (inactive) in [17]; 28.8 µM (inactive) in [18]. Further, in experiment [19], the GI50 was 74.3 µM (inactive).

For the compound `Cc1c(NC(=O)C(C)(C)Br)c(=O)oc2c(C)c3occc(=O)c3cc12`, the GI50 is > 100 µM (inactive) in experiment [1]; 77.3 µM (inactive) in experiment [2]; > 100 µM (inactive) in [3]; > 100 µM (inactive) in experiment [4]; 96.6 µM in experiment [5]; 90.2 µM (inactive) in experiment [6]. The GI50 in [8] was 37.1 µM (inactive); in [9], 31.1 µM (inactive); in experiment [10], 23.3 µM (inactive); in experiment [11], 81.5 µM (inactive); in experiment [12], > 100 µM (inactive); in experiment [13], 49.8 µM (inactive). Further, the GI50 was 55 µM (inactive) in experiment [14]; 22.9 µM (inactive) in [15]; > 100 µM (inactive) in experiment [16]; 87.9 µM (inactive) in [17]; 43 µM (inactive) in experiment [18]; > 100 µM (inactive) in experiment [19].

Turning to `COC(=O)CCC(=O)N1Cc2cc(C)ccc2N(C(=O)CCC(=O)OC)Cc2cc(C)ccc21`, the GI50 in [1] was > 100 µM (inactive); in experiment [2], > 100 µM (inactive); in experiment [3] it was > 100 µM (inactive); in experiment [5], over 100 µM; in experiment [20], > 100 µM (inactive); in experiment [6] it was > 100 µM (inactive). The GI50 in experiment [7], in [8], in experiment [10], in experiment [11], in [12] and in experiment [13] was > 100 µM (inactive) throughout. Moreover, the GI50 in experiment [14], in experiment [15], in [16] and in [18] was > 100 µM (inactive) each time.

`O=c1[nH]c(=O)n(C2OC(CO)C(N(O)Cc3ccc(F)cc3)C2O)cc1Br` (configuration not stated): the GI50 in experiment [1], in [2], in experiment [3], in experiment [4], in experiment [20] and in experiment [6] was > 100 µM (inactive) each time. The GI50 in [7], in experiment [8], in experiment [11], in [12], in experiment [13] and in [14] was > 100 µM (inactive) in each case. For the same compound, the GI50 in experiment [15], in [16], in [17], in experiment [18] and in [19] was > 100 µM (inactive) throughout.

For `CCOC(=O)C(C)Sc1nnc(COc2ccc(Cl)cc2)n1-c1ccccc1` (configuration not stated), the GI50 is 18.4 µM (inactive) in experiment [1]; 16.4 µM (inactive) in [2]; 24.6 µM (inactive) in experiment [3]; 22.5 µM (inactive) in experiment [4]; 14.7 µM in experiment [5]; 20.8 µM (inactive) in experiment [20]. Further, the GI50 was 18 µM (inactive) in experiment [6]; 21 µM (inactive) in experiment [7]; 25.8 µM (inactive) in [9]; 21.5 µM (inactive) in experiment [10]; 20.1 µM (inactive) in [11]; 17.4 µM (inactive) in experiment [12]. Besides, the GI50 in experiment [13] is 20.6 µM (inactive); in experiment [14], 23.4 µM (inactive); in experiment [15], 22 µM (inactive); in [16] it was 21.3 µM (inactive); in experiment [17], 19.3 µM (inactive); in experiment [19] it was 23.6 µM (inactive).

Consider `CCOC(=O)Cn1c(=O)[nH]c(=O)c2[nH]cnc21`, for which the GI50 is > 100 µM (inactive) in experiment [1]; > 100 µM (inactive) in experiment [2]; > 100 µM (inactive) in experiment [3]; > 100 µM (inactive) in [4]; over 100 µM in experiment [5]; > 100 µM (inactive) in [6]. The GI50 in experiment [7], in [8], in [9], in experiment [11], in experiment [12] and in [13] was > 100 µM (inactive) in each case. Also, the GI50 in [14], in [16], in experiment [17], in [18] and in experiment [19] was > 100 µM (inactive) throughout.
